Eight compounds from EP0503411A1, “Substituted N-phenylpiperidines and medicaments thereof” (BASF Aktiengesellschaft, priority 1991, dated 1992) can be followed below.

One test concerns the target Sigma-Rezeptor. Briefly: Sigma receptor binding test ([³H]-Ditolylguanidin binding, rat cerebrum membranes). Also on record: species or system Ratte. Conditions: [³H]-Ditolylguanidin-Bindungsstelle, 37°C. From the text: Der verwendete Bindungsassay (Bindung von [³H]-Ditolylguanidin) erfaßt sogenannte "Haloperidolsensitive-Sigma-Rezeptoren", die eine hohe Affinität zum Haloperidol, aber nur geringe Affinität zum Phencyclidin und zu Opoiden aufweisen.
Life Sciences 47, 1073 (1990)], eingesetzt.
Rattengroßhirne wurden in dem 10fachen Volumen Homogenisierungspuffer (50 mmol Tris(hydroxymethyl)-amino-methan, 0,1 mmol Ethylendiamintetraacetat, pH=7,7) mit einem Polytron-Homogenisiator homogenisiert (20 sec.). Nach 15 Minuten Zentrifugation bei 40000 Umdrehungen/min wurde das erhaltene Pellet resuspendiert und die Suspension erneut 15 Minuten lang mit 40000 Umdrehungen/min zentrifugiert. Das hierbei erhaltene Pellet wurde im 5fachen Volumen Homogenisierungspuffer resuspendiert und bis zur weiteren Verwendung in flüssigem Stickstoff eingefroren.
Testsubstanz und Membranen (0,3 mg Protein) wurden in 0,3 ml Inkubationspuffer (5 mmol Tris(hydroxymethyl)-amino-methan, 0,1 mmol Ethylendiamintetraacetat, pH=7,7) 45 Minuten bei 37°C inkubiert. Nach Zugabe von 100 000 dpm [³H]-Ditolylguanidin (54,5 Ci/mmol) wurde noch 1 Stunde inkubiert. Die Membranen wurden über GF/B-Filter (dunn-Labortechnik, Asbach) filtriert und mit einem 37°C warmen Waschpuffer (5 mmol Tris(hydroxymethyl)-amino-methan, 0,1 mmol Ethylendiamintetraacetat, pH=7,4) gewaschen. Die verbleibende Radioaktivität auf den Filtern wurde durch Flüssig-Scintillationszählung gemessen. Die Bindungsdaten wurden durch iterative Anpassungsprogramme analysiert.

The test system of the next test is Meerschweinchenherzen. In words: QT-prolonging effect, ECG measurement on isolated Langendorff-perfused guinea pig heart. To be noted: concentration in perfusate giving 20 % increase of initial QT duration, cumulative addition every 15 min, from linear regression. Also on record: species or system Duncin-Hartley-Meerschweinchen. The source says: Die Wirkung der Phenylpiperidine I als Repolarisationshemmstoffe kann man durch EKG-Messungen belegen. Dabei unterteilt man die Herzperiode zeitlich in Systole (Zusammenziehen des Herzens), auch QT-Dauer genannt, und Diastole (Erschlaffung des Herzens mit Blutfüllung der Herzkammern). Repolarisationshemmstoffe bewirken nun eine Verlängerung der QT-Dauer ohne die Vorhofkammer-überleitungszeit (PQ-Dauer) und die Anspannungszeit (QRS-Dauer, Beginn der Systole bis zum öffnen der Semilunarklappen) wesentlich zu verändern (s. Pschyrembel, 254. Auflage, 1982).
Die Wirksamkeit der erfindungsgemäßen Verbindungen als Repolarisationshemmstoffe läßt sich im Tierversuch durch EKG-Messungen beispielsweise am Meerschweinchenherzen untersuchen (s. Basic Res. Cardiol. 82 (1987) 437; J. Pharmacol. Methods 21 (1989) 195). Zum Vergleich der Wirksamkeit mehrerer Substanzen dient dabei zum Beispiel die Dosis eines Wirkstoffes, bei der eine 20 %ige Zunahme des QT-Ausgangswertes eintritt (ED₂₀ %). Hierzu trägt man die logarithmierten Dosiswerte der jeweiligen Substanzen gegen die experimentell gefundenen relativen Änderungen der QT-Dauer auf, und ermittelt mittels linearer Regression die Funktionsgleichung einer Geraden, aus der man dann den ED20 %-Wert berechnen kann.
Mit dieser Methode wurden die ED20 %-Werte erfindungsgemäßer Verbindungen bestimmt (s. Tabelle 1). Als Vergleichssubstanz diente D-Sotalol [4'-(1-Hydroxy-2-(isopropylamino)-ethyl)methansulfonanilid].
Als Versuchstiere dienten männliche Duncin-Hartley-Meerschweinchen mit einem Körpergewicht von 300 bis 350 g. 30 min nach Applikation von 1250 I.E. Heparin/kg Körpergewicht in den Bauchraum wurden die Tiere durch Genickschlag getötet. Nach dem Durchtrennen der Kopfschlagadern zum Entbluten, wurde der Bruststamm geöffnet, das Herz herausgetrennt und an eine Perfusionsapparatur angeschlossen. Die Perfusion erfolgte nach Langendorff mit Sauerstoff angereicherter auf 37°C erwärmter Krebs-Henseleit-Lösung (NaCl 6896 mg/l; KCl 350 mg/l; MgSO₄ 285 mg/l; CaCl₂ 370 mg/l; KH₂PO₄ 161 mg/l; NaHCO₃ 2090 mg/l; Glukose 2000 mg/l). Dabei wurde das Perfusionsvolumen pro Zeiteinheit bei einem Gesamtvolumen von 100 ml auf 4 bis 6 ml/min und der Perfusionsdruck auf 60 bis 70 mm Hg eingestellt. Nach einer Äquilibrierzeit von 30 min wurde zirkulierend perfundiert.
Die EKG-Messungen wurden über zwei Silberelektroden, die auf der Herzoberfläche im oberen Bereich der linken Koronararterie und auf der Rückseite des Herzens auf Höhe der Ventilebene angebracht waren, aufgenommen. Gemessen wurden die PQ-, QT- und QRS-Zeiten sowie die Herzfrequenz.
Die Substanzgabe erfolgte kumulativ im Abstand von 15 min ins Perfusat.

On Sigma-Rezeptor, “1-(4-Nitrophenyl)-4-(4-phenyl-1-piperidinoyl)-piperidin [Beispiel 8]” had a Ki of 2.8 nM.

On to `CN(Cc1ccccc1)CC1CCN(c2ccc([N+](=O)[O-])cc2)CC1` [Beispiel 2, 4-(N-Benzyl-N-methylaminomethyl)-1-(4-nitrophenyl)-piperidin], for which the inhibition constant (Ki) at Sigma-Rezeptor turned out to be 11 nM. Also, the ED20 % in the test on Meerschweinchenherzen is recorded as 0,42 µmol/l.

Take `N#Cc1ccc(N2CCC(N3CCN(c4ccc([N+](=O)[O-])cc4)CC3)CC2)cc1` [Beispiel 3, N-[4-N(4-Cyanophenyl)piperidinoyl]-N'³(4-nitrophenyl)-piperazin]: the ED20 % in the test on Meerschweinchenherzen was 0,031 µmol/l.

As for `CN(Cc1ccc(NS(C)(=O)=O)cc1)CC1CCN(c2ccc(NS(C)(=O)=O)cc2)CC1` [Beispiel 10, 1-(4-Methansulfonamidophenyl)-4-(N-(4-methansulfonamidobenzyl)-N-methylaminomethyl)-piperidin], in the test with Meerschweinchenherzen, the ED20 % is on record as 0,96 µmol/l.

As to `CN(Cc1ccccc1)C1CCCN(c2ccc([N+](=O)[O-])cc2)C1` (stereo not shown) [Beispiel 11, 3-(N-Benzyl-N-methylamino)-1-(4-nitrophenyl)-piperidin], affinity on Sigma-Rezeptor was put at a Ki of 2 nM. In addition, the ED20 % with Meerschweinchenherzen was 1,1 µmol/l.

With `CN(CC(O)c1ccc(F)cc1)C1CCN(c2ccc([N+](=O)[O-])cc2)CC1` (stereo not shown) [Beispiel 12, 4-[N,N-[2-(4-Fluorphenyl)-2-hydroxyethyl]methylamino]-1-(4-nitrophenyl)-piperidin], in the test on Meerschweinchenherzen, the ED20 % is on record as 0,21 µmol/l.

Take `CC(C)NCC(O)c1ccc(NS(C)(=O)=O)cc1` [D-Sotalol, 4'-(1-Hydroxy-2-(isopropylamino)-ethyl)methansulfonanilid, reference compound]: the ED20 % with Meerschweinchenherzen is 16,0 µmol/l.

`Cc1ccccc1NC(=N)Nc1ccccc1C` [DTG, 1,3-Di-o-tolyl-guanidin, reference compound]: the Ki on Sigma-Rezeptor worked out at 29.1 nM.

A word on the Ki: it is a measure of affinity in units of concentration, obtained from inhibition or displacement. Lower therefore signals higher affinity.
